These results are taken from patent publication EP2735563A1, “Meta substituted 2-[phenoxy-phenyl]-1-[1,2,4]triazol-1-yl-ethanol compounds and their use as fungicides” (BASF SE, priority 2012, dated 2014).

Format in all cases: cell-based
Settings in all cases: relative growth vs active compound-free control (100%), absorption at 405 nm 7 days after inoculation, 18°C

The subject of one test is Botrytis cinerea. Briefly: Activity against the grey mold Botrytis cinerea in the microtiterplate test (Botrci).
Another test concerns Pyricularia oryzae.
Another test concerns Septoria tritici. The experiment in a line: Activity against leaf blotch on wheat caused by Septoria tritici (Septtr), microtiter plate test.

For the compound `CC(O)(Cn1cncn1)c1ccc(Oc2ccc(Cl)cc2)c(Cl)c1` (centres unmarked) [Compound I-4, 2-[3-chloro-4-(4-chlorophenoxy)phenyl]-1-(1,2,4-triazol-1-yl)propan-2-ol], the “Growth (%) at 31 ppm Botrci” value with Botrytis cinerea was found to be 17%. Also, the “Growth (%) at 31 ppm Pyrior” value in the test on Pyricularia oryzae is given as 0%.
Consider `COC(C)(Cn1cncn1)c1ccc(Oc2ccc(Cl)cc2)c(Cl)c1` (centres unmarked) [Compound I-3, 1-[2-[3-chloro-4-(4-chlorophenoxy)phenyl]-2-methoxy-propyl]-1,2,4-triazole], for which the “Growth (%) at 31 ppm Pyrior” value in the test with Pyricularia oryzae amounted to 0%.
Take `CC(O)(Cn1cncn1)c1ccc(Oc2ccc(Cl)cc2)c(C(F)(F)F)c1` (centres unmarked) [Compound I-5]: the “Growth (%) at 31 ppm Pyrior” value with Pyricularia oryzae is given as 0%. For the same compound, the “Growth (%) at 31 ppm Septtr” value in the test on Septoria tritici is listed as 14%.
As for `OC(Cn1cncn1)c1ccc(Oc2ccc(Cl)cc2)c(Cl)c1` (centres unmarked) [Compound I-2, 1-[3-Chloro-4-(4-chlorophenoxy)phenyl]-2-(1,2,4-triazol-1-yl)ethanol], the “Growth (%) at 31 ppm Botrci” value with Botrytis cinerea was found to be 13%. In addition, the “Growth (%) at 31 ppm Pyrior” value with Pyricularia oryzae came out at 1%.
With `COC(C)(Cn1cncn1)c1ccc(Oc2ccc(Cl)cc2)c(C(F)(F)F)c1` (centres unmarked) [Compound I-6], in the test on Pyricularia oryzae, the “Growth (%) at 31 ppm Pyrior” value stood at 0%.
